Experimental data: US7196190B2, “Methods and compositions for screening for angiogenesis modulating compounds” (Xenogen Corporation, priority 1999, dated 2007)

Test system: VEGFR-2 promoter
Test: In vivo bioluminescence imaging of female VEGFR2 transgenic mouse during estrus
Conditions: subcutaneous 30mg/kg/day for 16 days, female VEGFR2 transgenic F1 mouse (founder KA); before treatment signal high for a maximum of 3–5 days
Description: Two female VEGFR2 transgenic F1 mice from founder KA (See Example 7 above) were subjected to in vivo imaging of bioluminescence both dorsally and ventrally over a 16 day period according to the methods described in U.S. Pat. No. 5,650,135 to Contag et al. The results are presented graphically in FIGS. 18A–18D (FIGS. 18A and 18B, mouse 1 and 2 dorsal views, respectively, and FIGS. 18C and 18D, mouse 1 and 2 ventral views, respectively). […] In general, higher levels of luminescence were detectable ventrally as compared to dorsally. The signals appeared to be localized in the ovary (dorsal view) and uterus (ventral view). Both ovaries were clearly visible in most of the dorsal views. The uterus, connecting tubes and ovaries were visible in some of the ventral views.
The effect of the known estrogen antagonist ICI 182 780 (Tocris Cookson Ltd. Bristol, UK) on gene expression mediated by the VEGFR-2 promoter was investigated using the methods described in the preceding example.
A mature female VEGFR2 transgenic F1 mouse from founder KA (See Example 7 above) was imaged daily for 16 days according to the methods described in U.S. Pat. No. 5,650,135 to Contag et al. The bioluminescence signal remained high for a maximum of from 3–5 days, dropping back to a basal level for the interim periods. […]

## C[C@]12CC[C@@H]3c4ccc(O)cc4C[C@@H](CCCCCCCCC[S+]([O-])CCCC(F)(F)C(F)(F)F)[C@H]3[C@@H]1CC[C@@H]2O (stereo partly shown) [ICI 182 780]
  time the uterine bioluminescence signal remained high before dropping back to basal level: 9 days
